This is an account of results in ChEMBL document CHEMBL1201862, “PubChem BioAssay data set” (2004).

Active and inactive are the calls of the source. Where only a bound is given, the exact number is not on record here.

The target in assay [1] is 72 kDa type IV collagenase (Homo sapiens, UniProt P08253). The experiment in a line: Dose Response validation of uHTS RPN11 inhibitor hits using a MMP-2 Fluorescence assay. The class given is functional.
Assay [2] is described as follows: control 3'UTR Renilla luciferase suppression, dose response, counter-screen for Shn3 inhibitor project, cell-based, Clone20-Shn3RL, cherry-picked (AID 624133). The class given is functional. A general note: A counterscreen serves to expose hits that act by an unwanted route or on another target.
Assay [3] concerns the target 26S proteasome non-ATPase regulatory subunit 14 (Homo sapiens, UniProt O00487). The assay can be described thus: inhibition of proteasome subunit RPN11 – biochemical, fluorescence polarization, uHTS hits, confirmation (AID 602368). Type of assay: functional.
Another assay concerns the target Prothrombin (Bos taurus, UniProt P00735). The experiment in a line: thrombin inhibition, dose response, biochemical, fluorescence polarization, uHTS hits (AID 602369). Type of assay: functional.
Assay [4] is described as follows: HepG2 cell cytotoxicity, dose response, cytotoxicity control for Shn3 inhibitor project, CellTiter-Glo, cherry-picked (AID 624134). The class given is functional, cell-based. (Cellular ATP, detected with luciferase, serves as a proxy for viable cell number.)
A short description of assay [5]: Shn3 3'UTR reporter inhibitors, dose response, cell-based, Clone20 osteoblasts, firefly luciferase, cherry-picked (AID 624132).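 Also: firefly luciferase luminescence from reporter carrying the Shn3 3'UTR in osteoblasts.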 The class given is functional.
For another assay, the system named is INS1. The experiment in a line: beta cell apoptosis inhibitors, cytokine rescue, dose response, luminescence, retest (AID 449756).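 Also: cell death triggered by IL-1 beta plus TNF-alpha plus IFN-gamma mixture; protective hits raise ATP signal compared with cytokine alone wells.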 The class given is functional, cell-based. As to conditions: Rattus norvegicus.
In assay [6] the target is T1, Sentrin-specific protease 8 (Homo sapiens, UniProt Q96LD8).
T1 sequence (Q96LD8 whole entry): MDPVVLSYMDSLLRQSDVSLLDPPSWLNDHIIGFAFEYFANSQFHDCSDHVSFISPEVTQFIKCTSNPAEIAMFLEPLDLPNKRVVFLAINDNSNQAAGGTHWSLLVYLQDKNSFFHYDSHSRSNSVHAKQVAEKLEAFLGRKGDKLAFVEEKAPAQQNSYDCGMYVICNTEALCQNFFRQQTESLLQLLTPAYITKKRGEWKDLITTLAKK
The class given is functional.

Assay [7] concerns the target T1, Sentrin-specific protease 8. Type of assay: functional. This is another data set of the same source.
Assay [8] deals with T2, Methionyl-tRNA synthetase, putative (Trypanosoma brucei brucei, UniProt Q38C91).
T2 sequence (Q38C91 whole entry): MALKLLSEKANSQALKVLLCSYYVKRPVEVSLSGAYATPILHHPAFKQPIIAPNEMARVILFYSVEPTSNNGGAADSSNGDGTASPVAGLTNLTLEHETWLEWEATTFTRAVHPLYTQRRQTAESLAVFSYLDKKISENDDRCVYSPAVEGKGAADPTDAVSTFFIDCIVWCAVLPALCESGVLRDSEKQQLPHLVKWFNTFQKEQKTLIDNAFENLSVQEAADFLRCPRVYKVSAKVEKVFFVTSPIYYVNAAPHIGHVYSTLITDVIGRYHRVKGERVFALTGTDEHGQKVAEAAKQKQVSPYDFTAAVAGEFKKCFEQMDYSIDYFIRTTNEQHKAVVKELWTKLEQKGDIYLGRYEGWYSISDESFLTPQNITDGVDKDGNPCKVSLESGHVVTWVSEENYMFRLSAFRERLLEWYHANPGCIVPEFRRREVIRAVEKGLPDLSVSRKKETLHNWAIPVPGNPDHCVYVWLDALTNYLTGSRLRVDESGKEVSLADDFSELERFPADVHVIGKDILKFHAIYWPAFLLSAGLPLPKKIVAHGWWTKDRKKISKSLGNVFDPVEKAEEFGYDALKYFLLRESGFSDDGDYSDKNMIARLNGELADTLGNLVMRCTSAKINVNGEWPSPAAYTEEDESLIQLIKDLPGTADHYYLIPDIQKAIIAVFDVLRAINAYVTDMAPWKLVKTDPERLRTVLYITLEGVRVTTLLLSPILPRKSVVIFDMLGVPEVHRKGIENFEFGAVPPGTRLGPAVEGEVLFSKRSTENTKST
Type of assay: functional, Trypanosoma brucei brucei strain 927/4 GUTat10.1.

Assay [9] deals with T2, Methionyl-tRNA synthetase, putative. The class given is functional, Trypanosoma brucei brucei strain 927/4 GUTat10.1. The source holds these as a separate data set.
A short description of assay [10]: Counterscreen for inhibitors of Trypanosoma brucei methionyl tRNA synthetase (MetRS): Luminescence-based cell-based high throughput dose response assay to identify compounds that are cytotoxic to Jurkat human T lymphocyte cells. Type of assay: functional.
The next assay addresses Beta-galactosidase (Escherichia coli, UniProt Q8VNN2). The experiment in a line: Dose response counterscreen for EBI2 assay utilizing the enzyme, b-galactosidase. Type of assay: functional.
Assay [11] has as its target T3, Corticotropin-releasing factor receptor 2/Corticotropin-releasing factor-binding protein (Homo sapiens, UniProt P24387+Q13324).
T3 sequence (Q13324 whole entry): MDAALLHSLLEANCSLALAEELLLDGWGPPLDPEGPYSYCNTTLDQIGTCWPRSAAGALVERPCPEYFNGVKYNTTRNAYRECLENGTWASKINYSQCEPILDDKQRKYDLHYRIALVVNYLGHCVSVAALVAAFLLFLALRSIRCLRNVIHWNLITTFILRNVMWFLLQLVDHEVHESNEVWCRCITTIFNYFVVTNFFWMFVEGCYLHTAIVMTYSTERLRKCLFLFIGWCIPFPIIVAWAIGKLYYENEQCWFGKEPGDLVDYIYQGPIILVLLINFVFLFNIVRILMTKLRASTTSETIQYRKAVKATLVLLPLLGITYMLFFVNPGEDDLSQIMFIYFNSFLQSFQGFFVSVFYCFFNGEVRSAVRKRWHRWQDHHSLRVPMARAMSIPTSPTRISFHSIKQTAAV
T3 sequence (P24387 whole entry): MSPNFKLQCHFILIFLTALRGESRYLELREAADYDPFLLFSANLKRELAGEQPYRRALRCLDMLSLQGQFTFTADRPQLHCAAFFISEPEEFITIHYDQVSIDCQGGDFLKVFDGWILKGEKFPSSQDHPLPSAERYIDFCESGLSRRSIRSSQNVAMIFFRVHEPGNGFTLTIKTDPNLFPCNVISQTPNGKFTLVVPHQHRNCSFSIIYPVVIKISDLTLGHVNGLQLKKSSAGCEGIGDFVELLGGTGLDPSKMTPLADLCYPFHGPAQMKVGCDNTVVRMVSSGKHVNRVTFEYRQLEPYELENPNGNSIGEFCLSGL
The assay can be described thus: activators of CRF receptor 2 with binding protein – uHTS hits, confirmation (AID 602473). As to conditions: read-out: EC50_Mean. The class given is functional.

In assay [12] the target is T3, Corticotropin-releasing factor receptor 2/Corticotropin-releasing factor-binding protein. The experiment in a line: Dose Response confirmation of uHTS hits for small molecule antagonists of the CRF-binding protein and CRF-R2 receptor complex. Type of assay: functional. The note with it: read-out: IC50_Mean.
Assay [13] is described as follows: CRF-BP/CRF-R2 complex antagonists, dose response, cell-based, uHTS hits, 384-well (AID 651639). Type of assay: functional, Homo sapiens. As to conditions: read-out: IC50_Mean.
Assay [14] has as its target FAD-linked sulfhydryl oxidase ALR (Homo sapiens, UniProt P55789). The experiment in a line: inhibitors of human ALR sulfhydryl oxidase, dose response, biochemical, H2O2 detection, luminescence, cherry-pick (AID 493248).
Assay [15] is described as follows: HEp-2 cell cytotoxicity, dose response, cytotoxicity control for RSV inhibitor project, HTS (AID 2410). As to conditions: human respiratory syncytial virus. The class given is functional.
Assay [16] addresses T4, Trace amine-associated receptor 1 (Homo sapiens, UniProt Q96RJ0).
T4 sequence (Q96RJ0 whole entry): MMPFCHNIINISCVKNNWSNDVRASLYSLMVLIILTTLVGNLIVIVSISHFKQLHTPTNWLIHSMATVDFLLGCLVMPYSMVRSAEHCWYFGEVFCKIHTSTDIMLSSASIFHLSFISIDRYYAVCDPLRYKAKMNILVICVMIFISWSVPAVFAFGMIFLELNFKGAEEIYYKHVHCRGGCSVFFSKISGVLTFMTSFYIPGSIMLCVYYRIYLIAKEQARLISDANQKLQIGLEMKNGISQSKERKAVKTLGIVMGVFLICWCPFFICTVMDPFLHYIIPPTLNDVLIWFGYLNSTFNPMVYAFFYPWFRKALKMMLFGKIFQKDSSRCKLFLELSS
The assay can be described thus: Counterscreen for agonists of the human trace amine associated receptor 1 (hTAAR1): Fluorescence-based cell-based high throughput dose response assay to identify hTAAR1 agonist that also desensitize TAAR1 receptor response. Type of assay: functional.

Assay [17] deals with T4, Trace amine-associated receptor 1. The experiment in a line: Fluorescence-based cell-based high throughput dose response assay to identify agonists of the human trace amine associated receptor 1 (TAAR1). The class given is functional.
Assay [18] is described as follows: cells. The class given is functional, cell-based.
Assay [19] is described as follows: cells. Type of assay: functional, cell-based. This is another data set of the same source.

Beta-galactosidase, sequence (Q8VNN2 whole entry): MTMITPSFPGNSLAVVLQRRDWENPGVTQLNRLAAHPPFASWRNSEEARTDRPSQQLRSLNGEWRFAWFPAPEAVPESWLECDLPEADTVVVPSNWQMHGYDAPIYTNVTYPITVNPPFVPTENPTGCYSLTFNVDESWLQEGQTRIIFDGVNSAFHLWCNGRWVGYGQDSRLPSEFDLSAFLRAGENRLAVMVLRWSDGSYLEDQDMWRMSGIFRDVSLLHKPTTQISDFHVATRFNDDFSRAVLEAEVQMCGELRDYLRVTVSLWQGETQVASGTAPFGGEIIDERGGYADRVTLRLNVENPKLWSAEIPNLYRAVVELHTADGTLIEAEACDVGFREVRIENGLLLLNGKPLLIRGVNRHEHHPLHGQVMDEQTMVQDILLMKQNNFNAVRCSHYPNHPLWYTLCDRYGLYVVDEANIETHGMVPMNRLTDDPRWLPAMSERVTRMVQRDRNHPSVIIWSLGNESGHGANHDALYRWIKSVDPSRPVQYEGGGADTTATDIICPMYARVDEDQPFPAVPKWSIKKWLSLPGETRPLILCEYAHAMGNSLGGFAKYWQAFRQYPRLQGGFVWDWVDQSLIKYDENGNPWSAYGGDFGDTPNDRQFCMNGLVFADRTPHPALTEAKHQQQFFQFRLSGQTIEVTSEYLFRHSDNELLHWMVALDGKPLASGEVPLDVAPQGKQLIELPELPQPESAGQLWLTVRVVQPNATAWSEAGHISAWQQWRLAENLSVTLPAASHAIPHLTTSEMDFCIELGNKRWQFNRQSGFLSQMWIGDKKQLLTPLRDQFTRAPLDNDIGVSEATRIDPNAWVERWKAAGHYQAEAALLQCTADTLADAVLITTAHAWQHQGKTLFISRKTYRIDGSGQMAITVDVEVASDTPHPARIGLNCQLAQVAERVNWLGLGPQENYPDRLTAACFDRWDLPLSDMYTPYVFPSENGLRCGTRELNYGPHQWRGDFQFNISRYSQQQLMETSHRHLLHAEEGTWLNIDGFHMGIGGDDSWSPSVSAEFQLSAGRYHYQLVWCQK
FAD-linked sulfhydryl oxidase ALR, sequence (P55789 whole entry): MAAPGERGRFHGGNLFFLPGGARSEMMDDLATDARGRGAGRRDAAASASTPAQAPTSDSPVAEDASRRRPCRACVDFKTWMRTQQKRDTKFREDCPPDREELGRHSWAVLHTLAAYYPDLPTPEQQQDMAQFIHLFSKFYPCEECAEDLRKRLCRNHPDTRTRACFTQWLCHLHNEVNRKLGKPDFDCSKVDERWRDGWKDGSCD
72 kDa type IV collagenase, sequence (P08253 whole entry): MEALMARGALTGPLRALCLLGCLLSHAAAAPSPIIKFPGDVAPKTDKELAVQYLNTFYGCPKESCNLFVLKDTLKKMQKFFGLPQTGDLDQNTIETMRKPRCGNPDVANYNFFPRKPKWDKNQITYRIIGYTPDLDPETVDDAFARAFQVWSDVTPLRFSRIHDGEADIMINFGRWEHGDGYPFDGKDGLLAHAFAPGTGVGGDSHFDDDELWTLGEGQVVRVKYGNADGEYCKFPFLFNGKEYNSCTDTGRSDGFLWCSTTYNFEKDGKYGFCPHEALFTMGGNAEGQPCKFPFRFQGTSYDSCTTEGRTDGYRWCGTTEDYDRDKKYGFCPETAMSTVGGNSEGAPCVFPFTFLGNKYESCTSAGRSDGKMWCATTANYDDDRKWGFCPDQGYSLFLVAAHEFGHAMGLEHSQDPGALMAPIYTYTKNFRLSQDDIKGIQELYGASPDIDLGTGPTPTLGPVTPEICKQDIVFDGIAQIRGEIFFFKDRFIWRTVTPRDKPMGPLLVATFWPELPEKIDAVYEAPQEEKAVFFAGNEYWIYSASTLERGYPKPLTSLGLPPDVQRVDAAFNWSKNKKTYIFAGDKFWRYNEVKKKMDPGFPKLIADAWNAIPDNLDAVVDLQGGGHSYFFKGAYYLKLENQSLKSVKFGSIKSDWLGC
26S proteasome non-ATPase regulatory subunit 14, sequence (O00487 whole entry): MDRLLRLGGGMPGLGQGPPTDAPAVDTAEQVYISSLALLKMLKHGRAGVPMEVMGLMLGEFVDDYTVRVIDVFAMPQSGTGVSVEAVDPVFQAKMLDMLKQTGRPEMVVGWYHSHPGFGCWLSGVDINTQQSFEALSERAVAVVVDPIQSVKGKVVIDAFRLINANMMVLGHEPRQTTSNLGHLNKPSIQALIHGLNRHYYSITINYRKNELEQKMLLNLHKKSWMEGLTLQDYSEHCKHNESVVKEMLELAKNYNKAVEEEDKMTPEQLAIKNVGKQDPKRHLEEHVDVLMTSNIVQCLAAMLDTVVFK

Usually AC50 stands for the concentration giving half of the maximal activity seen. For `O=[N+]([O-])c1ccc(Sc2cccc3cccnc23)c([N+](=O)[O-])c1`, the IC50 in [1] is > 100 µM (inactive); in assay [3] it was 27.6 µM (active); at Prothrombin, > 100 µM (inactive). The half-maximal activity concentration (AC50) was 15.2 µM (active) in assay [2], > 70 µM (inactive) in assay [4], 1.71 µM (active) in assay [5] and 1.18 µM (active) with INS1.

As for `CC(NC(=O)COC(=O)c1ccc([N+](=O)[O-])s1)c1ccccc1` (stereo not given), the IC50 is 17.1 µM (active) in assay [6] and 6.55 µM (active) in [7].

As for `Cc1cccc(OCCCC(=O)Nc2ccc(Br)cc2)c1`, the IC50 is 32 µM (inactive) in assay [8], 119 µM (inactive) in [9] and 83.3 µM (inactive) in assay [10].

Regarding `Cc1ccc(Nc2ccc(C(=O)NCCc3ccccc3)cn2)cc1`, at Beta-galactosidase, the IC50 was > 80 µM (inactive).

Consider `Cc1ccc(CNC(=O)C2CCN(S(=O)(=O)c3ccc4c(c3)OCCCO4)CC2)cc1`, for which the IC50 on Beta-galactosidase was > 80 µM (inactive).

On to `O=C(c1ccc(Cl)cc1)N1CCN(S(=O)(=O)/C=C/c2ccccc2)CC1`, for which the IC50 on Beta-galactosidase is > 80 µM (inactive).

`C=CCn1c(SCc2c(C)noc2C)nc2sc(C)c(C)c2c1=O`: the EC50 in assay [11] was > 53 µM (inactive). Also, the IC50 in assay [12] was < 0.368 µM (active); in assay [13], > 20 µM (inactive).

On to `COc1ccc(-c2nnc(SC)nc2-c2ccc(OC)c([N+](=O)[O-])c2)cc1[N+](=O)[O-]`, for which the IC50 was 46.9 µM (active) in assay [6] and > 100 µM (inactive) in [7].

Regarding `COc1cccc(NC(=S)NC(Cc2ccccc2)c2ccccc2)c1` (stereo not given), in [11], the EC50 is > 53 µM (inactive). The IC50 in [12] was 3.35 µM (active); in [13], 2.73 µM (active).

The CC50 is the concentration that lowers cell viability or growth by half. Consider `Cc1nn(-c2ccccc2)c(C)c1/C=N/n1c(S)nnc1-c1ccccc1Br`, for which the EC50 in assay [11] is > 53 µM (inactive). The IC50 in assay [12] is 3.92 µM (active); in assay [13], 10.9 µM (active). The AC50 in assay [14] is 3.44 µM (active). Moreover, in assay [15], the CC50 is 23.2 µM (active).

Take `CN(CCc1ccccc1)C(=O)CC1C(=O)NCCN1Cc1ccccn1` (stereo not given): the values for the IC50 (in assay [16]; in “cells [18]”) were 9.93 µM (active) and > 29.9 µM (inactive), respectively. In addition, the EC50 is 3.05 µM (active) in assay [17] and > 29.9 µM (inactive) in “cells [19]”.

As for `CC(C)[C@H](NS(=O)(=O)c1ccc(F)cc1F)C(=O)N1CCC[C@H]1C(=O)NCCc1ccccc1Cl`, the IC50 in assay [16] is 4.65 µM (active); in “cells [18]” it was > 29.9 µM (inactive). For the same compound, the results for the EC50 (in assay [17]; in “cells [19]”) were 2.89 µM (active) and > 29.9 µM (inactive), respectively.

Turning to `CCOC(=O)N[C@@H](Cc1cccnc1)C(=O)N1CCC[C@H]1C(=O)NCCc1ccccc1Cl`, the IC50 is 8.93 µM (active) in assay [16] and > 29.9 µM (inactive) in “cells [18]”. The EC50 in assay [17] is 3.16 µM (active); in “cells [19]”, > 29.9 µM (inactive).
